For 31 compounds, EC50 results are on record in patent US20230122249A1, “1H-PYRAZOLO[4,3-d]PYRIMIDINE COMPOUNDS AS TOLL-LIKE RECEPTOR 7 (TLR7) AGONISTS” (BRISTOL-MYERS SQUIBB COMPANY, priority 2020, published 2023).

pEC50: −log10 of the molar value.

One experiment has as its target T1, human TLR7 (Homo sapiens, UniProt Q9NYK1).
T1 construct: host or cells: HEK-Blue TLR7 cells (engineered human embryonic kidney cells)
T1 sequence (Q9NYK1 27-1049): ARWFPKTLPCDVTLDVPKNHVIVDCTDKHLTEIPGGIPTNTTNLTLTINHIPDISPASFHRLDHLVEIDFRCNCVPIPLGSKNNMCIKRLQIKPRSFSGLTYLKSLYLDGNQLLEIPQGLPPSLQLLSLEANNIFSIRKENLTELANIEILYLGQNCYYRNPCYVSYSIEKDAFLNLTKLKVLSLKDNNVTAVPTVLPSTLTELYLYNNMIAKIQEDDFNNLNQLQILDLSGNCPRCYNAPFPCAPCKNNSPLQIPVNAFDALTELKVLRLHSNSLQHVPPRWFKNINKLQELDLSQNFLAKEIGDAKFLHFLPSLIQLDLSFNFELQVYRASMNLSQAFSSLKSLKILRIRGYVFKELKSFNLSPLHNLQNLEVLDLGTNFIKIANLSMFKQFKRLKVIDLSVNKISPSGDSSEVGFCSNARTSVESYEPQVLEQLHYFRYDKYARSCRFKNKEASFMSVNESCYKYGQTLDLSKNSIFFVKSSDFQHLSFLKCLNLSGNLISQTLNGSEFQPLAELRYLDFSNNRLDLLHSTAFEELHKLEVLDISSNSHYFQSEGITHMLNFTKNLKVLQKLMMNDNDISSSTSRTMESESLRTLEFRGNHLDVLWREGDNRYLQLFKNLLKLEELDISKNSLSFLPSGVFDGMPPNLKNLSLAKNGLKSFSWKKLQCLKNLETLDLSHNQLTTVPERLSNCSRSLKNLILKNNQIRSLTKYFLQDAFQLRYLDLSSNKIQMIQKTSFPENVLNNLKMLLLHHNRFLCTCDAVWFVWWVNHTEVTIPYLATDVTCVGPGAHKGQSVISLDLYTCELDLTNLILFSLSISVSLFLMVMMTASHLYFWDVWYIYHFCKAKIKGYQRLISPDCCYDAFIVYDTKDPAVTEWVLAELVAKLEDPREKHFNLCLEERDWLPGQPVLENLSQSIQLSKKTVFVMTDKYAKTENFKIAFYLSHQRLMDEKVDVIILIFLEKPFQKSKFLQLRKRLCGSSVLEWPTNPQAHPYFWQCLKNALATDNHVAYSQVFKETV
The experiment in a line: Human TLR7 agonist activity (hTLR7 reporter) assay in HEK-Blue TLR7 cells, SEAP readout. Conditions: 18 h treatment, average where assay repeated. The format is cell-based. Here is the method:
This procedure describes a method for assaying human TLR7 (hTLR7) agonist activity of the compounds disclosed in this specification.
HEK-Blue™ TLR7 cells were added to each well of a 384-well tissue-culture plate (15,000 cells per well) and incubated 16-18 h at 37° C., 5% CO2. Compounds (100 nl) were dispensed into wells containing the HEK-Blue™ TLR cells and the treated cells were incubated at 37° C., 5% CO2. After 18 h treatment ten microliters of freshly-prepared Quanti-Blue™ reagent (Invivogen) was added to each well, incubated for 30 min (37° C., 5% CO2) and SEAP levels measured using an Envision plate reader (OD=620 nm). The half maximal effective concentration values (EC50; compound concentration which induced a response halfway between the assay baseline and maximum) were calculated.

Experiment [1] relates to CD69 in human whole blood. The experiment in a line: Induction of CD69 in human whole blood (hWB). The format is cell-based. Conditions: heparinized human whole blood, 17 h, CD69 surface staining; 100% set to 1 uM resiquimod; average where assay repeated. As to the method:
The induction of Type I interferon (IFN) MX-1 genes and the B-cell activation marker CD69 are downstream events that occur upon activation of the TLR7 pathway. The following is a human whole blood assay that measures their induction in response to a TLR7 agonist.
Heparinized human whole blood was harvested from human subjects and treated with test TLR7 agonist compounds at 1 mM. The blood was diluted with RPMI 1640 media and Echo was used to predot 10 nL per well giving a final concentration of 1 uM (10 nL in 10 uL of blood). After mixing on a shaker for 30 sec, the plates were covered and placed in a 37° C. chamber for o/n=17 hrs. Fixing/lysis buffer was prepared (5×->1×in H2O, warm at 37° C.; Cat# BD 558049) and kept the perm buffer (on ice) for later use.
For surface markers staining (CD69): prepared surface Abs: 0.045 ul hCD14-FITC (ThermoFisher Cat # MHCD1401)+0.6 ul hCD19-ef450 (ThermoFisher Cat #48-0198-42)+1.5 ul hCD69-PE (cat# BD555531)+0.855 ul FACS buffer. Added 3 ul/well, spin1000 rpm for 1 min and mixed on shaker for 30 sec, put on ice for 30 mins. Stop stimulation after 30 minutes with 70 uL of prewarmed 1×fix/lysis buffer and use Feliex mate to resuspend (15 times, change tips for each plate) and incubate at 37° C. for 10 minutes.
Centrifuge at 2000 rpm for 5 minutes aspirate with HCS plate washer, mix on shaker for 30 sec and then wash with 70 uL in dPBS and pelleted 2 xs (2000 rpm for 5 min) and 50 ul wash in FACS buffer pelleted 1 xs(2000 rpm for 5 min). Mix on shaker for 30 sec. For Intracellular markers staining (MX-1): Add 50 ul of BD Perm buffer III and mix on shaker for 30 sec. Incubate on ice for 30 minutes (in the dark). Wash with 50 uL of FACS buffer 2×(spin @2300 rpm×5 min after perm) followed by mixing on shaker for 30 sec. Resuspended in 20 ul of FACS buffer containing MX1 antibody ( )(4812)-Alexa 647: Novus Biologicals #NBP2-43704AF647) 20 ul FACS bf+0.8 ul hlgG+0.04 ul MX-1. Spin 1000 rpm for 1 min, mix on shaker for 30 se and the samples were incubated at RT in the dark for 45 minutes followed by washing 2×FACS buffer (spin @2300 rpm×5 min after perm). Resuspend 20 ul (35 uL total per well) of FACS buffer and cover with foil and place in 4° C. to read the following day. Plates were read on iQuePlus. The results were loaded into toolset and […] curves are generated in curve master. The y-axis 100% is set to 1 uM of resiquimod.

For `COc1cc(CN2C[C@H]3CNC[C@H]3C2)ccc1Cn1ncc2nc(N)nc(NCC3CC4(CC4)C3)c21` [Compound 169], the pEC50 is 7.55 on human TLR7 and 8.35 in experiment [1].
In the same order, the values of `COc1cc(CNCCO)ccc1Cn1ncc2nc(N)nc(NCC3CC4(CC4)C3)c21` [Compound 170] are 7.73 and 8.68.
For the compound `COc1cc(C(=O)N2CCNCC2)ccc1Cn1ncc2nc(N)nc(NCC3CC4(CC4)C3)c21` [Compound 171], the pEC50 at human TLR7 is 7.77; in experiment [1] it was 8.55.
Consider `COc1cc(C(=O)N2CC3(CNC3)C2)ccc1Cn1ncc2nc(N)nc(NCC3CC4(CC4)C3)c21` [Compound 172], for which the pEC50 at human TLR7 is 6.11; in experiment [1] it was 6.52.
On to `COc1cc(C(=O)N2CC3(CN(C)C3)C2)ccc1Cn1ncc2nc(N)nc(NCC3CC4(CC4)C3)c21` [Compound 173], for which the pEC50 on human TLR7 is 7.68; in experiment [1], 8.27.
For the compound `COc1cc(C(=O)N2CC3(COC3)C2)ccc1Cn1ncc2nc(N)nc(NCC3CC4(CC4)C3)c21` [Compound 174], the results for the pEC50 (at human TLR7; in experiment [1]) were 7.03 and 6.03, respectively.
For `COc1cc(C(=O)N2C[C@H]3CNC[C@H]3C2)ccc1Cn1ncc2nc(N)nc(NCC3CC4(CC4)C3)c21` [Compound 175], in that order: 7.02 and 7.31.
`COc1cc(C(=O)N2C[C@H]3CN(C)C[C@H]3C2)ccc1Cn1ncc2nc(N)nc(NCC3CC4(CC4)C3)c21` [Compound 176]: the results for the pEC50 (on human TLR7; in experiment [1]) were 7.97 and 8.44, respectively.
In the same order, the values of `COc1cc(C(=O)N[C@H]2C[C@H](O)C2)ccc1Cn1ncc2nc(N)nc(NCC3CC4(CC4)C3)c21` [Compound 177] are 6.24 and 6.45.
With `COc1cc(C(=O)N2C[C@@H]3C[C@H]2CN3)ccc1Cn1ncc2nc(N)nc(NCC3CC4(CC4)C3)c21` [Compound 178], the pEC50 at human TLR7 is 6.44; in experiment [1], 6.81.
Regarding `COc1cc(C(=O)N2C[C@@H]3C[C@H]2CN3C)ccc1Cn1ncc2nc(N)nc(NCC3CC4(CC4)C3)c21` [Compound 179], the negative-log EC50 (pEC50) on human TLR7 is 7.44; in experiment [1] it was 7.88.
Consider `COc1cc(C(=O)N2CC3(CNC3)C2)ccc1Cn1ncc2nc(N)nc(NCC3CC4(CCC4)C3)c21` [Compound 180], for which the figures for the negative logarithm of the EC50 (pEC50) (at human TLR7; in experiment [1]) were 6.14 and 6.44, respectively.
Turning to `COc1cc(C(=O)N2C[C@@H]3C[C@H]2CN3)ccc1Cn1ncc2nc(N)nc(NCC3CC4(CCC4)C3)c21` [Compound 181], the results for the pEC50 (at human TLR7; in experiment [1]) were 6.60 and 6.96, respectively.
Regarding `COc1cc(C(=O)N2C[C@H]3CNC[C@H]3C2)ccc1Cn1ncc2nc(N)nc(NCC3CC4(CCC4)C3)c21` [Compound 182], the pEC50 at human TLR7 is 6.40; in experiment [1], 6.69.
As to `COc1cc(CN2CCN(CCO)CC2)ccc1Cn1ncc2nc(N)nc(NCC3CC4(CC4)C3)c21` [Compound 183], the pEC50 on human TLR7 is 7.50; in experiment [1], 7.31.
For `COc1cc(C(=O)N2CCN(CCO)CC2)ccc1Cn1ncc2nc(N)nc(NCC3CC4(CC4)C3)c21` [Compound 184], in that order: 7.17 and 6.96.
With `COc1cc(CN2CCN(CCO)CC2)ccc1Cn1ncc2nc(N)nc(NCC3CC4(C3)CC(F)(F)C4)c21` [Compound 185], the pEC50 on human TLR7 was 6.32; in experiment [1] it was 6.93.
`COc1cc(CN(C)C)ccc1Cn1ncc2nc(N)nc(NCC3CC4(C3)CC(F)(F)C4)c21` [Compound 186]: the pEC50 is 6.02 on human TLR7 and 6.11 in experiment [1].
For `COc1cc(C(=O)N2CC3(CN(C)C3)C2)ccc1Cn1ncc2nc(N)nc(NCC3CC4(C3)CC(F)(F)C4)c21` [Compound 187], in that order: 5.64 and 6.38.
Regarding `COc1cc(C(=O)N2C[C@H]3CN(C)C[C@H]3C2)ccc1Cn1ncc2nc(N)nc(NCC3CC4(C3)CC(F)(F)C4)c21` [Compound 188], the pEC50 at human TLR7 was 6.09; in experiment [1], 6.31.
Regarding `COc1cc(C(=O)N2C[C@H]3C[C@@H]2CN3C)ccc1Cn1ncc2nc(N)nc(NCC3CC4(C3)CC(F)(F)C4)c21` [Compound 189], the pEC50 at human TLR7 is 6.11; in experiment [1], 6.00.
For `COc1cc(C(=O)NC2CN(C)C2)ccc1Cn1ncc2nc(N)nc(NCC3CC4(CC4)C3)c21` [Compound 190], in that order: 6.50 and 6.77.
In the case of `COc1cc(C(=O)N[C@H]2CCN(C)C2)ccc1Cn1ncc2nc(N)nc(NCC3CC4(CC4)C3)c21` [Compound 192], the negative-log EC50 (pEC50) on human TLR7 is 7.33; in experiment [1], 7.66.
`COc1cc(C(=O)N[C@@H]2CCN(C)C2)ccc1Cn1ncc2nc(N)nc(NCC3CC4(CC4)C3)c21` [Compound 193]: the pEC50 at human TLR7 was 7.32; in experiment [1], 7.82.
As for `COc1cc(C(=O)NC2CCN(C(C)C)CC2)ccc1Cn1ncc2nc(N)nc(NCC3CC4(CC4)C3)c21` [Compound 194], the results for the pEC50 (at human TLR7; in experiment [1]) were 6.99 and 7.00, respectively.
For `COc1cc(C(=O)NC2CCN(C3CC3)CC2)ccc1Cn1ncc2nc(N)nc(NCC3CC4(CC4)C3)c21` [Compound 195], the pEC50 was 6.71 at human TLR7 and 6.39 in experiment [1].
With `CCCN1CCC(NC(=O)c2ccc(Cn3ncc4nc(N)nc(NCC5CC6(CC6)C5)c43)c(OC)c2)CC1` [Compound 197], the results for the pEC50 (at human TLR7; in experiment [1]) were 7.49 and 7.45, respectively.
As to `COc1cc(C(=O)NC2CCN(C)CC2)ccc1Cn1ncc2nc(N)nc(NCC3CC4(CC4)C3)c21` [Compound 198], the pEC50 on human TLR7 is 7.04; in experiment [1], 7.22.
For the compound `COc1cc(C(=O)N2CC3(CN(C)C3)C2)ccc1Cn1ncc2nc(N)nc(NCC3CC4(CCC4)C3)c21` [Compound 200], the pEC50 was 6.91 on human TLR7 and 6.89 in experiment [1].
In the same order, the values of `COc1cc(C(=O)NC2CC3(C2)CN(C)C3)ccc1Cn1ncc2nc(N)nc(NCC3CC4(CC4)C3)c21` (centres unmarked) [Compound 201] are 6.07 and 6.69.
For `COc1cc(C(=O)NC2CN(C)C2)ccc1Cn1ncc2nc(N)nc(NCC3CC4(CCC4)C3)c21` [Compound 205], in that order: 6.48 and 6.50.

Broadly, the pEC50 is the EC50 on a negative log10 scale, so that one unit is a factor of ten.
